Assay results from ChEMBL document CHEMBL1255553, “Unusual antimalarial meroditerpenes from tropical red macroalgae” (Bioorg Med Chem Lett, 2010).
Values after ≈ are worked out from the molar mass of the structure shown.

Tested on: Mycobacterium tuberculosis
Experiment: Antimicrobial activity against vancomycin-resistant Mycobacterium tuberculosis
Assay type: functional, organism-based

SMILES | MIC [µM] | IC50 [µM]
CC1=C2Cc3cc(ccc3O)C(=O)O[C@H](C(C)(C)Br)CC[C@](C)(O)[C@H](Br)CC[C@]2(C)[C@@H](Br)CC1 | 11 (≈ 7.32 µg/mL) | 
CC1=C2Cc3cc(ccc3O)C(=O)O[C@H](C(C)(C)O)CC[C@]3(C)O[C@H]3C/C=C(\C)C2CC1 (some centres undefined) | > 100 | 
Cc1cc(O)cc(CC[C@](C)(O)CCC[C@H](C)CCC[C@H](C)CCCC(C)C)c1O |  | > 100
CC(C)=CCC[C@@](C)(O)[C@@H]1CC/C(C)=C/CC/C(C)=C/Cc2cc(ccc2O)C(=O)O1 [CALLOPHYCOLIDE A] | 12 (≈ 5.12 µg/mL) | 
